Legend:
Settings in all cases: exposure time: 72 h
E21 [1] = patient-derived glioblastoma stem cells of mesenchymal subtype; experiment: surviving fraction (nuclei count normalised to DMSO); higher = more cells surviving (less toxic)
E34 [2] = patient-derived glioblastoma stem cells of proneural subtype; experiment: as above
E28 [3] = patient-derived glioblastoma stem cells of classical subtype; experiment: as above
E57 [4] = patient-derived glioblastoma stem cells of mesenchymal subtype; experiment: as above
E31 [5] = patient-derived glioblastoma stem cells of proneural subtype; experiment: as above
E13 [6] = patient-derived glioblastoma stem cells of classical subtype; experiment: as above
FT3469 [7] = normal neural stem cell line; experiment: as above
E21 [8] = experiment: phenotypic distance (Euclidean, principal components) from DMSO controls (arbitrary units); higher = stronger morphological change
E34 [9] = experiment: as above
E28 [10] = experiment: as above
E57 [11] = experiment: as above
E31 [12] = experiment: as above
E13 [13] = experiment: as above
FT3469 [14] = experiment: as above
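For phenotypic distance (Euclidean, principal components) from DMSO controls in this document: cell Painting imaging in 384-well plates, CellProfiler features reduced to at least 20 principal components, Euclidean distance versus same-plate DMSO vehicle wells (0.1% v/v), median over six images per well.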
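For surviving fraction (nuclei count normalised to DMSO) in this document: nuclei counted by high-content imaging of Hoechst-stained cells in laminin-coated 384-well plates, relative to 0.1% DMSO vehicle wells, with staurosporine as cell-death control.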

COc1cc([C@@H]2c3cc4c(cc3[C@H](O)[C@H]3COC(=O)[C@H]23)OCO4)cc(OC)c1OC [Podophyllotoxin]
Settings	phenotypic distance	surviving fraction
E13 [6], 4.1 nM	–	0.153
E13 [6], 12.3 nM	–	0.182
E13 [6], 37 nM	–	0.139
E13 [6], 111.1 nM	–	0.182
E13 [6], 333.3 nM	–	0.123
E13 [6], 1000 nM	–	0.197
E13 [6], 3000 nM	–	0.112
E13 [13], 4.1 nM	6.81	–
E13 [13], 12.3 nM	7.76	–
E13 [13], 37 nM	6.3	–
E13 [13], 111.1 nM	8.14	–
E13 [13], 333.3 nM	7.56	–
E13 [13], 1000 nM	9.37	–
E13 [13], 3000 nM	9.25	–
E21 [1], 4.1 nM	–	0.115
E21 [1], 12.3 nM	–	0.113
E21 [1], 37 nM	–	0.0947
E21 [1], 111.1 nM	–	0.0585
E21 [1], 333.3 nM	–	0.0628
E21 [1], 1000 nM	–	0.0607
E21 [1], 3000 nM	–	0.0362
E21 [8], 4.1 nM	8.85	–
E21 [8], 12.3 nM	8.76	–
E21 [8], 37 nM	8.54	–
E21 [8], 111.1 nM	8.65	–
E21 [8], 333.3 nM	8.16	–
E21 [8], 1000 nM	8.89	–
E21 [8], 3000 nM	8.66	–
E28 [3], 4.1 nM	–	0.354
E28 [3], 12.3 nM	–	0.369
E28 [3], 37 nM	–	0.324
E28 [3], 111.1 nM	–	0.265
E28 [3], 333.3 nM	–	0.22
E28 [3], 1000 nM	–	0.209
E28 [3], 3000 nM	–	0.198
E28 [10], 4.1 nM	3.02	–
E28 [10], 12.3 nM	3.22	–
E28 [10], 37 nM	4.05	–
E28 [10], 111.1 nM	5.71	–
E28 [10], 333.3 nM	5.89	–
E28 [10], 1000 nM	6.42	–
E28 [10], 3000 nM	6.86	–
E31 [5], 4.1 nM	–	0.0505
E31 [5], 12.3 nM	–	0.0728
E31 [5], 37 nM	–	0.0565
E31 [5], 111.1 nM	–	0.0446
E31 [5], 333.3 nM	–	0.0282
E31 [5], 1000 nM	–	0.0371
E31 [5], 3000 nM	–	0.0297
E31 [12], 4.1 nM	5.03	–
E31 [12], 12.3 nM	5.75	–
E31 [12], 37 nM	7.75	–
E31 [12], 111.1 nM	13.3	–
E31 [12], 333.3 nM	11.2	–
E31 [12], 1000 nM	14.3	–
E31 [12], 3000 nM	13.5	–
E34 [2], 4.1 nM	–	0.471
E34 [2], 12.3 nM	–	0.378
E34 [2], 37 nM	–	0.31
E34 [2], 111.1 nM	–	0.339
E34 [2], 333.3 nM	–	0.32
E34 [2], 1000 nM	–	0.329
E34 [2], 3000 nM	–	0.249
E34 [9], 4.1 nM	4.47	–
E34 [9], 12.3 nM	4.98	–
E34 [9], 37 nM	6.57	–
E34 [9], 111.1 nM	8.02	–
E34 [9], 333.3 nM	7.55	–
E34 [9], 1000 nM	9.53	–
E34 [9], 3000 nM	9.18	–
E57 [4], 4.1 nM	–	0.0665
E57 [4], 12.3 nM	–	0.0974
E57 [4], 37 nM	–	0.0586
E57 [4], 111.1 nM	–	0.0625
E57 [4], 333.3 nM	–	0.089
E57 [4], 1000 nM	–	0.0755
E57 [4], 3000 nM	–	0.0653
E57 [11], 4.1 nM	6.96	–
E57 [11], 12.3 nM	6.65	–
E57 [11], 37 nM	7.38	–
E57 [11], 111.1 nM	5.64	–
E57 [11], 333.3 nM	6.77	–
E57 [11], 1000 nM	7.07	–
E57 [11], 3000 nM	6.6	–
FT3469 [7], 4.1 nM	–	0.517
FT3469 [7], 12.3 nM	–	0.541
FT3469 [7], 37 nM	–	0.375
FT3469 [7], 111.1 nM	–	0.377
FT3469 [7], 333.3 nM	–	0.433
FT3469 [7], 1000 nM	–	0.416
FT3469 [7], 3000 nM	–	0.379
FT3469 [14], 4.1 nM	4.23	–
FT3469 [14], 12.3 nM	5.67	–
FT3469 [14], 37 nM	4.76	–
FT3469 [14], 111.1 nM	6.26	–
FT3469 [14], 333.3 nM	5.78	–
FT3469 [14], 1000 nM	5.4	–
FT3469 [14], 3000 nM	6.63	–

Reference: the supplement of paper PMC13207355
